Test results taken from patent publication US11497751B2, “Modulators of Rho-associated protein kinase” (Redx Pharma PLC, priority 2018, dated 2022).

Target: T1, N-terminal 6His-tagged ROCK2 catalytic domain 11-552 (Homo sapiens, UniProt O75116)
T1 construct: N-terminal 6His-tagged ROCK2 catalytic domain 11-552; 6His (N); purchased Dundee University, UK; host or cells: baculovirus expression system
Assay: ROCK2 binding activity: ROCK2 inhibition, ADP-Glo Kinase Assay
Type: biochemical
Conditions: 1.25 nM ROCK2, 100 μM long S6 peptide, 20 μM ATP; 1 hour pre-incubation; read-out: ADP-Glo kinase activity assay ROCK2 Category
Experimental: Assay for ROCK2 inhibition was performed using the protein construct N-terminal 6His-tagged ROCK2 catalytic domain 11-552 (Dundee University, UK). Protein was purified from a baculovirus expression system. Long S6 peptide ([…]) was used as substrate. Kinase reactions were carried out in 15 μl volume in a 96-well plate (black, half area) using 1.25 nM constitutively active ROCK2 kinase, 100 μM long S6 peptide, 20 μM ATP and test compound in DMSO (or DMSO only for controls). The final concentration of DMSO was 1%. Assay buffer was 50 mM HEPES pH 7.5 supplemented with 0.2 mM EDTA, 10 mM magnesium acetate, 0.01% Tween-20, 1 mM DTT and 0.01% BSA. Test compounds were pre-incubated with ROCK2 kinase for 1 hour before addition of ATP and long S6 peptide. After incubation for a further 1 hour, the amount of ADP produced was measured using ADP-Glo Kinase Assay (Promega) as per manufacturer's instructions. The luminescence was measured on a PHERAstar FS (BMG Labtech). The concentration of test compound required to inhibit ADP production by 50% (the IC50) was calculated using a four-parameter logistic function with software by Dotmatics.
The category “+” refers to compounds with a ROCK2 IC50 value of >10 μM. The category “++” refers to compounds with a ROCK2 IC50 value of 10 to 3 μM. The category “+++” refers to compounds with a ROCK2 IC50 value of 3 to 0.3 μM. The category “++++” refers to compounds with a ROCK2 IC50 value of <0.3 μM.

T1 sequence (O75116 11-552): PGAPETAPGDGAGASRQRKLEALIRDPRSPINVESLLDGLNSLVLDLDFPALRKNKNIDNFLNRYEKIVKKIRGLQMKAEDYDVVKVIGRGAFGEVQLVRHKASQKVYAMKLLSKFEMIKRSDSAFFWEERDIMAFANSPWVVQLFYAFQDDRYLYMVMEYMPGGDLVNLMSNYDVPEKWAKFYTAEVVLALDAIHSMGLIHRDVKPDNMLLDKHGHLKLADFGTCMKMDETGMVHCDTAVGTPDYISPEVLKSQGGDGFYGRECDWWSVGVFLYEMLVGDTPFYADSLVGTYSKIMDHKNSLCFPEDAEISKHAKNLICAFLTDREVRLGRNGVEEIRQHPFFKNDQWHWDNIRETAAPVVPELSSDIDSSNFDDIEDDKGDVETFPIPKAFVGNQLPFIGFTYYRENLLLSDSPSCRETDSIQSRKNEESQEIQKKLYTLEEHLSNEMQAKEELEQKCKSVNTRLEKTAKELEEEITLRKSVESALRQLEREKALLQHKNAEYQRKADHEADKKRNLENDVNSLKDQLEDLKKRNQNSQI

SMILES | IC50
Cn1nc(-c2ccc3c(c2)CCN(CC(F)(F)F)C3)nc1Nc1ccc2[nH]ncc2c1Cl [Example 372] | < 300 nM
CCc1c(Nc2nc(-c3ccc(C(=O)NCC(C)(C)C)cc3)nn2C)ccc2[nH]ncc12 [Example 321] | < 300 nM
CNC(=O)Nc1ccc(-c2nc(Nc3ccc4[nH]ncc4c3Cl)n(C)n2)cc1OC [Example 71] | < 300 nM
COCCn1cc(-c2nc(Nc3ccc4[nH]ncc4c3Cl)n(C)n2)cn1 [Example 115] | < 300 nM
Cn1nc(-c2cccnc2)nc1Nc1ccc2[nH]ncc2c1Cl [Example 93] | 3000 to 10000 nM
CC(C)NC(=O)Cn1ccc(-c2nnc(Nc3ccc4[nH]ncc4c3)[nH]2)cc1=O [Example 28] | 3000 to 10000 nM
Cn1nc(-c2ccncc2)nc1Nc1ccc2[nH]ncc2c1C1CC1 [Example 392] | 300 to 3000 nM
CCc1c(Nc2nc(-c3ccc(C(=O)NC4CC4)c(OC)c3)nn2C)ccc2[nH]ncc12 [Example 252, N-cyclopropyl-4-[5-[(4-ethyl-1H-indazol-5-yl)amino]-1-methyl-1,2,4-triazol-3-yl]-2-methoxy-benzamide] | < 300 nM
COc1cc(C(=O)NCC(F)(F)F)ccc1-c1nc(Nc2ccc3[nH]ncc3c2C2CC2)n(C)n1 [Example 278] | < 300 nM
COc1cc(OCC(=O)NC(C)C)ccc1-c1nnc(Nc2ccc3[nH]ncc3c2)[nH]1 [Example 27] | 300 to 3000 nM
CCc1c(Nc2nc(-c3ccc(C(=O)NCC(F)F)cc3)nn2C)ccc2[nH]ncc12 [Example 317] | < 300 nM
Oc1ccc(-c2nnc(Nc3ccc4[nH]ncc4c3)[nH]2)cc1 [Example 39] | 300 to 3000 nM
COc1cc(-c2nc(Nc3ccc4[nH]ncc4c3Cl)n(C)n2)ccc1C(=O)NC1CCN(CC(F)(F)F)C1 (stereo not drawn) [Example 363] | < 300 nM
CCC(=O)N1CCc2cc(-c3nc(Nc4ccc5[nH]ncc5c4C4CC4)n(C)n3)ccc2C1 [Example 391] | < 300 nM
CCNC(=O)c1ccc(-c2nc(Nc3ccc4[nH]ncc4c3)n(C)n2)cc1C(F)(F)F [Example 398] | 3000 to 10000 nM
c1ccc(COc2ccc(-c3nnc(Nc4ccc5[nH]ncc5c4)[nH]3)cc2)cc1 [Example 13] | 300 to 3000 nM
O=C(COc1ccc(-c2nnc(Nc3ccc4[nH]ncc4c3)[nH]2)cc1)NC1CC1 [Example 162] | < 300 nM
CNC(=O)COc1ccc(-c2nnc(Nc3ccc4[nH]ncc4c3)[nH]2)cc1OC [Example 9] | 300 to 3000 nM
NC1(COc2ccc(-c3nnc(Nc4ccc5[nH]ncc5c4)[nH]3)cc2)COC1 [Example 228, N-[5-[4-[(3-aminooxetan-3-yl)methoxy]phenyl]-4H-1,2,4-triazol-3-yl]-1H-indazol-5-amine] | 300 to 3000 nM
CCC(CO)NC(=O)c1ccc(-c2nc(Nc3ccc4[nH]ncc4c3C3CC3)n(C)n2)cc1 (stereo not drawn) [Example 310] | < 300 nM
Cn1nc(-c2ccc(C(=O)NC(C)(C)C)cc2)nc1Nc1ccc2[nH]ncc2c1Cl [Example 257] | < 300 nM

SMILES | IC50
Cn1nc(-c2ccc(C(=O)NC3(C(F)(F)F)CC3)cc2)nc1Nc1ccc2[nH]ncc2c1C1CC1 [Example 281] | < 300 nM
Cn1nc(-c2ccc(C(=O)NCC(C)(C)N)cc2)nc1Nc1ccc2[nH]ncc2c1C1CC1 [Example 291] | 3000 to 10000 nM
Cn1nc(-c2ccc(C(=O)NC3CC(O)C3)cc2)nc1Nc1ccc2[nH]ncc2c1C1CC1 (stereo not drawn) [Example 288] | < 300 nM
COc1cc(-c2nc(Nc3ccc4[nH]ncc4c3C)n(C)n2)ccc1C(=O)NC1CN(C)C1 [Example 328] | 3000 to 10000 nM
COc1cc(-c2nc(Nc3ccc4[nH]ncc4c3Cl)n(C(C)C)n2)ccc1C(=O)NCC(F)(F)F [Example 192] | < 300 nM
Cn1nc(-c2ccc(C(=O)NC3CCOC3)cc2)nc1Nc1ccc2[nH]ncc2c1C1CC1 (stereo not drawn) [Example 303] | < 300 nM
Cn1nc(-c2cccc(N)c2)nc1Nc1ccc2[nH]ncc2c1Cl [Example 132] | 300 to 3000 nM
Cn1nc(-c2cccc(CNS(C)(=O)=O)c2)nc1Nc1ccc2[nH]ncc2c1Cl [Example 75] | < 300 nM
COc1ccc(-c2nc(Nc3ccc4[nH]ncc4c3Cl)n(C)n2)c(F)c1 [Example 104] | < 300 nM
COCCn1nc(-c2ccc(C(=O)NCC(F)(F)F)c(OC)c2)nc1Nc1ccc2[nH]ncc2c1C1CC1 [Example 439] | < 300 nM
CCc1c(Nc2nc(-c3ccc(C(=O)NC(C)C)c(OC)c3)nn2C)ccc2[nH]ncc12 [Example 314] | < 300 nM
COc1cc(-c2nc(Nc3ccc4[nH]ncc4c3Cl)n(C(C)C)n2)ccc1C(=O)NC(C)C [Example 191] | < 300 nM
CC(C)NC(=O)COc1ccc(-c2nnc(Nc3ccc4[nH]ncc4c3)[nH]2)cc1C#N [Example 14] | < 300 nM
CCc1c(Nc2nc(-c3ccc(C(=O)NCC(C)C)cc3)nn2C)ccc2[nH]ncc12 [Example 320] | < 300 nM
Cn1nc(-c2ccc(C(=O)NCC(F)(F)F)cc2)nc1Nc1ccc2[nH]ncc2c1C1CC1 [Example 343, 4-[5-[(4-cyclopropyl-1H-indazol-5-yl)amino]-1-methyl-1,2,4-triazol-3-yl]-N-(2,2,2-trifluoroethyl)benzamide] | < 300 nM
O=C(COc1ccc(-c2nnc(Nc3ccc4[nH]ncc4c3)[nH]2)cc1)NC1CCCC1 [Example 160] | < 300 nM
CCNC(c1ccc(-c2nc(Nc3ccc4[nH]ncc4c3C3CC3)n(C)n2)cc1)C(F)F (stereo not drawn) [Example 388] | 300 to 3000 nM
CCNC(=O)c1c(F)cc(-c2nc(Nc3ccc4[nH]ncc4c3)n(C)n2)cc1F [Example 410] | 300 to 3000 nM
COc1cc(-c2nc(Nc3cc4cn[nH]c4cc3C)n(C)n2)ccc1C(=O)NCC(F)(F)F [Example 335] | > 10000 nM
Cn1nc(-c2ccc(C(=O)NC3CC3)c(F)c2)nc1Nc1ccc2[nH]ncc2c1C1CC1 [Example 380] | < 300 nM
CCNC(=O)c1ccc(-c2nc(Nc3ccc4[nH]ncc4c3Cl)n(C)n2)c(F)c1 [Example 356] | < 300 nM

SMILES | IC50
Cc1c(Nc2nc(-c3ccc(C(N)C(F)(F)F)cc3)nn2C)ccc2[nH]ncc12 (stereo not drawn) [Example 422] | > 10000 nM
Cn1nc(-c2ccnc(N)c2)nc1Nc1ccc2[nH]ncc2c1Cl [Example 133] | 300 to 3000 nM
CC(C)NC(=O)COc1ccc(-c2nc(Nc3ccc4[nH]ncc4c3Cl)n(C)n2)cc1 [Example 471] | < 300 nM
COc1cc(-c2nc(Nc3ccc4[nH]ncc4c3Cl)n(C)n2)ccc1C(=O)NC1CCN(C)C1 (stereo not drawn) [Example 202] | < 300 nM
COc1cc(-c2nc(Nc3ccc4[nH]ncc4c3)nn2C)ccc1OCC(=O)NC(C)C [Example 232, 2-[4-[5-(1H-indazol-5-ylamino)-2-methyl-1,2,4-triazol-3-yl]-2-methoxy-phenoxy]-N-isopropyl-acetamide] | 300 to 3000 nM
CC(C)NC(=O)COc1ccc(-c2nc(Nc3ccc4[nH]ncc4c3)n(C)n2)c(C#N)c1 [Example 403] | < 300 nM
C=Cc1c(Nc2nc(-c3ccc(C(=O)NCC)cc3)nn2C)ccc2[nH]ncc12 [Example 426] | < 300 nM
CC(C)NC(=O)COc1ccc(-c2nc(Nc3ccc4[nH]ncc4c3Cl)n(C)n2)cc1C#N [Example 349] | < 300 nM
COc1cc(-c2nc(Nc3ccc4[nH]nc(C)c4c3)n(C)n2)ccc1OCC(=O)NC(C)C [Example 233, N-isopropyl-2-[2-methoxy-4-[1-methyl-5-[(3-methyl-1H-indazol-5-yl)amino]-1,2,4-triazol-3-yl]phenoxy]acetamide] | < 300 nM
COc1cc(-c2nc(Nc3ccc4[nH]ncc4c3Cl)n(-c3ccccn3)n2)ccc1OCC(=O)NC(C)C [Example 151] | > 10000 nM
CCNC(=O)c1cc(F)c(-c2nc(Nc3ccc4[nH]ncc4c3)n(C)n2)cc1F [Example 409] | < 300 nM
Cn1nc(-c2ccc(C(=O)NCC(F)(F)CO)cc2)nc1Nc1ccc2[nH]ncc2c1C1CC1 [Example 284] | < 300 nM
CC(C)C(=O)NCCOc1ccc(-c2nnc(Nc3ccc4[nH]ncc4c3)[nH]2)cc1 [Example 23] | 300 to 3000 nM
CCNC(=O)c1ccc(-c2nc(Nc3ccc4[nH]ncc4c3CC)n(C)n2)cc1 [Example 323] | < 300 nM
C=C(C)c1c(Nc2nc(-c3ccc(C(=O)NCC(F)(F)F)cc3)nn2C)ccc2[nH]ncc12 [Example 458, 4-[5-[(4-isopropenyl-1H-indazol-5-yl)amino]-1-methyl-1,2,4-triazol-3-yl]-N-(2,2,2-trifluoroethyl)benzamide] | < 300 nM
Cn1nc(C2=CCCC2)nc1Nc1ccc2[nH]ncc2c1Cl [Example 108] | 300 to 3000 nM
CN1CCc2cc(-c3nc(Nc4ccc5[nH]ncc5c4)n(C)n3)ccc2C1 [Example 414] | 3000 to 10000 nM
CN1CCC(NC(=O)COc2ccc(-c3nnc(Nc4ccc5[nH]ncc5c4)[nH]3)cc2)C1 (stereo not drawn) [Example 163] | 300 to 3000 nM
CCNC(=O)c1ccc(-c2nc(Nc3ccc4[nH]ncc4c3C)n(C)n2)cc1OC [Example 180] | < 300 nM
Cc1c(Nc2nc(-c3ccc(C(=O)NCC(F)(F)F)nc3)nn2C)ccc2[nH]ncc12 [Example 418] | 300 to 3000 nM
COc1cc(-c2nc(Nc3ccc4[nH]ncc4c3Cl)n(C)n2)ccc1C(=O)NC#N [Example 199] | 300 to 3000 nM
